Where a SMILES comes first, the peptide text is derived from it. The star is where a group is joined. Cbz = O=C(OCc1ccccc1)*
Columns and labels:
[1] = system: tyrosinase; assay: Tyrosinase expression (RT-PCR and Western blotting); type: cell-based, mouse; details: for effect on the suppressed tyrosinase expression induced by β-mangostin: autophagy inhibitor with β-mangostin and α-MSH
Protocol: (§1) Total RNA was extracted from the cells by using RiboEX reagent (GeneAll Biotechnology Co. Ltd, Seoul, South Korea). cDNA was synthesized by using 2 μg of RNA based on reverse transcription (Thermo Scientific, Waltham, MA, USA). PCR was carried out by using Solg™ e-Taq DNA polymerase kit (SolGent Co. Ltd, Daejeon, South Korea), and each primer described in the following Table 1 was used for PCR.
Total proteins were extracted by using RIPA dissolving buffer (50 mM Tris-HCl (pH 8.0), 150 mM NaCl, 1% NP-40, 0.5% sodium dioxycholate and 0.1% SDS). […] The membrane was then incubated with 5% skim milk and primary antibody for 1 hour in TBS (tris-buffer saline) containing 0.1% Tween 20. The antibodies against tyrosinase and TRP-1 were purchased from Santa Cruz Biotechnology, USA. LC3B, p62 and ATG5 were purchased from CST (Cell Signaling Technology, USA). The antibody against PMEL was purchased from Abcam (UK). Signal detection was made based on enhanced chemiluminescence (Bio-Rad).

[2] = system: B16F10 mouse melanoma cells; assay: Cell viability (MTT analysis); type: cell-based; details: 24 hours, at 20 μM and 40 μM
Protocol: B16F10 cells were cultured for 24 hours in a 96-well plate. […] Subsequently, a MTT solution (5 μg/mL) was added to the cells, which were then cultured for 3 hours. After removing the medium and treating the cells with DMSO, the cells were cultured for 20 minutes. By using a microplate reader (Bio-Rad), absorbance at 595 nm was measured.
Then, based on MTT […]-(4,5-dimethylthiazol-2-yl)-2,5-diphenyltetrazolium bromide) analysis, cell viability was determined.

[3] = system: B16F10 mouse melanoma cells; assay: Melanin content in α-MSH-treated cells; type: cell-based; details: for melanin content reduction / change in melanin content: co-treatment with α-MSH, compared to α-MSH only; for melanin content reduction: 5 μM; for influence on melanin content: co-treatment of inhibitor with β-mangostin and α-MSH
Protocol: Measurement of melanin content was carried out by slightly modifying the method by Yang et al. (Yang et al., 2006, Acta pharmacologica Sinica 27, 1467-73). Specifically, B16F10 cells were inoculated into a 6-well plate and cultured for 24 hours. […] The cultured cells were collected after being subjected to trypsinization and dissolution in 1 N NaOH containing DMSO for 24 hours at 65° C. By using a microplate reader (Bio-Rad), melanin content was measured at 415 nm.
(§2) As a result, as it is shown in FIG. 3, cell pellets were turned into black color when the treatment is carried out with α-MSH only. […] Namely, it was shown that β-mangostin suppresses the pigmentation induced by α-MSH. […] In particular, when the treatment is carried out with β-mangostin at 5 μM, which is the same concentration as α-mangostin, melanin content was reduced by 40% or so.

[4] = system: B16F10 mouse melanoma cells; assay: Suppression of α-MSH-induced pigmentation (cell pellet color); type: cell-based; details: co-treatment with α-MSH, 72 hours
Protocol: as §2, with “In order to see whether or not β-mangostin can suppress the pigmentation induced by α-MSH (melanocyte-stimulating hormone), B16F10 cells were treated with α-MSH and β-mangostin followed by incubation for 72 hours. As” for “As”

[5] = target: T1, tyrosinase (Mus musculus, UniProt P11344); assay: Tyrosinase activity (L-DOPA oxidation) in cell lysates; type: cell-based
T1 construct: The cultured cells were collected and dissolved with 1% Triton X-100 solution for 1 hour on ice; endogenous in cells; host or cells: B16F10 mouse melanoma cells
T1 sequence (P11344 19-533): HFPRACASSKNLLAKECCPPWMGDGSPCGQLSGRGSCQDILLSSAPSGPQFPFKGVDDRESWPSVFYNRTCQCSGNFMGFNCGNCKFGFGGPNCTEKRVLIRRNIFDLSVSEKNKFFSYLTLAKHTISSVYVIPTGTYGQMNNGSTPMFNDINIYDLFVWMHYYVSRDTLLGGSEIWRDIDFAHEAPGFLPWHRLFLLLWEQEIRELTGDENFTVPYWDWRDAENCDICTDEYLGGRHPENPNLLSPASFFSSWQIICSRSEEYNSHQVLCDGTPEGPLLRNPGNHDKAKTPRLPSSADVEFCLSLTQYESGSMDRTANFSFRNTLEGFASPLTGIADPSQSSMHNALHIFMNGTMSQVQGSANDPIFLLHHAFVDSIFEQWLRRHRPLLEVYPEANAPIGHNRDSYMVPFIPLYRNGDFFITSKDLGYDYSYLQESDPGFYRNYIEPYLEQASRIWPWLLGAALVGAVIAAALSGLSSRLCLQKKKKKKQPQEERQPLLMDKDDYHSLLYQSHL
Protocol: Tyrosinase activity was measured by slightly modifying the method by Ohgushi et al. (Ohgushi et al., 2009, Biological & Pharmaceutical Bulletin 32, 308-10). Specifically, B16F10 cells were inoculated into a 6-well plate and cultured for 24 hours. Thereafter, the cells were treated with β-mangostin and α-MSH, each at 1 μM, followed by culture for 48 hours. The cultured cells were collected and dissolved with 1% Triton X-100 solution for 1 hour on ice. The proteins were cultured with 100 μl (2 mg/ml) L-DOPA in a 5% CO2 humidifying incubator at 37° C. condition. By using a microplate reader (Bio-Rad), absorbance at 490 nm was measured.

[6] = system: TRP-1 (tyrosinase-related protein-1); assay: TRP-1 expression (RT-PCR and Western blotting); type: cell-based, mouse; details: B16F10 cells
Protocol: as §1
(§3) Total proteins were extracted by using RIPA dissolving buffer (50 mM Tris-HCl (pH 8.0), 150 mM NaCl, 1% NP-40, 0.5% sodium dioxycholate and 0.1% SDS). The proteins were separated on a 10 to 15% SDS-PAGE, and transferred to a PVDF membrane (Millipore, Billerica, MA, USA). The membrane was then incubated with 5% skim milk and primary antibody for 1 hour in TBS (tris-buffer saline) containing 0.1% Tween 20. The antibodies against tyrosinase and TRP-1 were purchased from Santa Cruz Biotechnology, USA. LC3B, p62 and ATG5 were purchased from CST (Cell Signaling Technology, USA). The antibody against PMEL was purchased from Abcam (UK). Signal detection was made based on enhanced chemiluminescence (Bio-Rad).
In order to confirm the whitening effect of β-mangostin, RT-PCR and Western blotting analysis were carried out for tyrosinase and TRP-1.

[7] = system: p62 and PMEL (premelanosome protein); assay: p62 and PMEL expression (Western blot); type: cell-based, mouse; details: for effect on the suppressed expression of p62 and PMEL induced by β-mangostin: autophagy inhibitor with β-mangostin and α-MSH
Protocol: as §3
Autophagy occurs through a fusion process between an autophagosome and a lysosome. In order to confirm whether or not the depigmentation effect induced by β-mangostin occurs through lysosome-dependent protein degradation during the autophagy process, B16F10 cells were treated with bafilomycin A1 (liquid vacuole type, H^+-ATPase inhibitor) which inhibits β-mangostin, α-MSH, and lysosome activity. As a result, as it is shown in FIG. 7, bafilomycin A1 inhibits, at the aforementioned conditions, the suppressed tyrosinase expression that has been induced by β-mangostin.

[8] = system: mRFP-EGFP-LC3B in B16F10 cells; assay: Melanosome autophagy in cells expressing mRFP-EGFP-LC3B (confocal microscopy); type: cell-based, mouse; details: β-mangostin (10 μM) and α-MSH (1 μM)
Protocol: B16F10 cells were infected with mRFP-EGFP-LC3B (Kimura et al., 2007, Autophagy 3, 452-60) by using Lipofectamine 3000 (Invitrogen, Carlsbad, CA, USA). The cells were treated with β-mangostin (10 μM) and α-MSH (1 μM), and analysis was made by using confocal microscopy (FV1000, Olympus, Tokyo, Japan).
In order to confirm whether or not β-mangostin can induce the autophagy of a melanosome, B16F10 cells were infected with a construct expressing mRFP-EGFP-LC3B, and then treated with β-mangostin and α-MSH. […] On the other hand, the number of red spots increased in the group treated with both α-MSH and β-mangostin while total number of spots has decreased. If an autophagosome fuses with a lysosome only after wrapping the melanosome, the intra-autophagosomal pH should decrease, and EGFP should be abolished under acidic pH conditions. Accordingly, it was found from the above results that, due to the autophagy enhanced by β-mangostin, degradation of a melanosome has occurred.

[9] = system: B16F10 mouse melanoma cells; assay: Removal of melanin previously produced by α-MSH; type: cell-based; details: treatment after 2 days of α-MSH
Protocol: In order to determine the activity of β-mangostin for removing melanin which has been previously produced by α-MSH as a melanin cell stimulating hormone, B16F10 cells were treated for 2 days with α-MSH to have synthesis of melanin. Thereafter, the cells were treated with β-mangostin of the present invention and 3-MA, which is an autophagy inhibitor.

[10] = siATG5, β-mangostin (10 μM) and α-MSH (1 μM), 48 hours
[11] = treatment after 2 days of α-MSH (melanin previously produced)

CO/C1=C\C(C)=C\[C@@H](C)[C@@H](O)[C@@H](C)C/C(C)=C/C=C/[C@H](OC)[C@@H]([C@@H](C)[C@@H](O)[C@H](C)[C@@]2(O)C[C@@H](O)[C@H](C)[C@@H](C(C)C)O2)OC1=O [bafilomycin A1]
effect on the suppressed tyrosinase expression induced by β-mangostin [1]: inhibits

COc1c(O)cc2oc3cc(O)c(CC=C(C)C)c(O)c3c(=O)c2c1CC=C(C)C [α-mangostin]
cytotoxicity (cell viability, MTT) [2]: potent cytotoxicity | melanin content reduction [3]: about 20%

COc1cc2oc3cc(O)c(OC)c(CC=C(C)C)c3c(=O)c2c(O)c1CC=C(C)C [β-mangostin]
cell pellet color [4]: changed from black color to white color | change in melanin content [3]: effectively reduced | melanin content reduction [3]: ~40% | melanin content level reduced by β-mangostin, after knockdown of ATG5 [3, 10]: increased again | oxidation level of L-DOPA ([5]; co-treatment with α-MSH, concentration dependent): effectively reduced | expression amount of tyrosinase induced by α-MSH ([1]; RT-PCR and Western blotting, B16F10 cells): effectively lowered | expression of tyrosinase reduced by β-mangostin, after knockdown of ATG5 [1, 10]: increased again | expression amount of tyrosinase [1, 11]: lower a significant expression amount | expression amount of TRP-1 induced by α-MSH [6]: effectively lowered | expression of p62 and PMEL reduced by β-mangostin, after knockdown of ATG5 [7, 10]: increased again | expression amount of PMEL [7, 11]: lower a significant expression amount | number of red spots (mRFP-EGFP-LC3B) [8]: increased | total number of spots (mRFP-EGFP-LC3B) [8]: decreased | content of previously formed melanin [9]: lower effectively

CC(C)C[C@@H](C=O)NC(=O)[C@H](CC(C)C)NC(=O)[C@H](CC(C)C)NC(=O)OCc1ccccc1 [MG132] (Cbz-Leu-Leu-Leu-aldehyde)
influence on melanin content [3]: no influence | influence on L-DOPA oxidation ([5]; co-treatment of inhibitor with β-mangostin and α-MSH): no influence | tyrosinase expression amount ([1]; co-treatment of inhibitor with β-mangostin and α-MSH (proteasome dependence)): did not increase

CCN(CC)CCCC(C)Nc1ccnc2cc(Cl)ccc12 (centres unmarked) [chloroquine, reference compound]
effect on the suppressed tyrosinase expression induced by β-mangostin [1]: inhibited | effect on the suppressed expression of p62 and PMEL induced by β-mangostin [7]: inhibit the suppressed expression

Cn1cnc(N)c2ncnc1-2 [3-methyladenine]
influence on melanin content [3]: starts to increase again | effect on the suppressed tyrosinase expression induced by β-mangostin [1]: inhibited | effect on the suppressed expression of p62 and PMEL induced by β-mangostin [7]: inhibit the suppressed expression

CC(C)=CCc1c(O)cc2oc3cc(O)c(O)c(CC=C(C)C)c3c(=O)c2c1O [γ-mangostin]
change in melanin content [3]: further increased the melanin content
